T1: androgen receptor (Homo sapiens, UniProt P10275)
T1 sequence (P10275 1-920): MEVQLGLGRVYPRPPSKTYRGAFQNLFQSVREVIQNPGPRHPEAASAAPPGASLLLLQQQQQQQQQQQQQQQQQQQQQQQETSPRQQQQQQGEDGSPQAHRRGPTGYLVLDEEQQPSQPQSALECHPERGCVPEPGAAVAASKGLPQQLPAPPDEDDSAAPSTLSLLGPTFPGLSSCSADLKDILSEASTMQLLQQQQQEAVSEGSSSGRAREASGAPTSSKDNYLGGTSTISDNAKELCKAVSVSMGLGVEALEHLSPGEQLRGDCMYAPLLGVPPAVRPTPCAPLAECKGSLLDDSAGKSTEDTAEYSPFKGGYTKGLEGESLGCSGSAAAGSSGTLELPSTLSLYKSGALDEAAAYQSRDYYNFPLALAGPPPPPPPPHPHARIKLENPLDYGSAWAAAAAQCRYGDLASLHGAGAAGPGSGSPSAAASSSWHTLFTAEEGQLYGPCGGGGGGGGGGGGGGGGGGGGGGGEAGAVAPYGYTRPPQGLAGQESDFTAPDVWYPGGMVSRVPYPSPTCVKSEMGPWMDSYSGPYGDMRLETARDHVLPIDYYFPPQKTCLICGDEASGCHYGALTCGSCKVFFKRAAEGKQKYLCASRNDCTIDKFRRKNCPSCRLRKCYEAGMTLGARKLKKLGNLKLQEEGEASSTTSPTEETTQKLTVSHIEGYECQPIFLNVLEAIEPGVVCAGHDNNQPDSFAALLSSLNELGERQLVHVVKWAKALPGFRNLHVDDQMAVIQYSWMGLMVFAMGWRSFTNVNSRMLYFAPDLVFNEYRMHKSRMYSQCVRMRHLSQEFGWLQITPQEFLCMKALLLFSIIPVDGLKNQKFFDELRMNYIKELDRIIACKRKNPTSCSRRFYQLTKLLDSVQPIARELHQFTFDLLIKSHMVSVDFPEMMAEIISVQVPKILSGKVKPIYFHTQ

T2: Gal4 transcriptional activation domain (AD) fused in frame with AR (yeast, UniProt P10275 1-920, limits assumed)
T2 sequence (looked up): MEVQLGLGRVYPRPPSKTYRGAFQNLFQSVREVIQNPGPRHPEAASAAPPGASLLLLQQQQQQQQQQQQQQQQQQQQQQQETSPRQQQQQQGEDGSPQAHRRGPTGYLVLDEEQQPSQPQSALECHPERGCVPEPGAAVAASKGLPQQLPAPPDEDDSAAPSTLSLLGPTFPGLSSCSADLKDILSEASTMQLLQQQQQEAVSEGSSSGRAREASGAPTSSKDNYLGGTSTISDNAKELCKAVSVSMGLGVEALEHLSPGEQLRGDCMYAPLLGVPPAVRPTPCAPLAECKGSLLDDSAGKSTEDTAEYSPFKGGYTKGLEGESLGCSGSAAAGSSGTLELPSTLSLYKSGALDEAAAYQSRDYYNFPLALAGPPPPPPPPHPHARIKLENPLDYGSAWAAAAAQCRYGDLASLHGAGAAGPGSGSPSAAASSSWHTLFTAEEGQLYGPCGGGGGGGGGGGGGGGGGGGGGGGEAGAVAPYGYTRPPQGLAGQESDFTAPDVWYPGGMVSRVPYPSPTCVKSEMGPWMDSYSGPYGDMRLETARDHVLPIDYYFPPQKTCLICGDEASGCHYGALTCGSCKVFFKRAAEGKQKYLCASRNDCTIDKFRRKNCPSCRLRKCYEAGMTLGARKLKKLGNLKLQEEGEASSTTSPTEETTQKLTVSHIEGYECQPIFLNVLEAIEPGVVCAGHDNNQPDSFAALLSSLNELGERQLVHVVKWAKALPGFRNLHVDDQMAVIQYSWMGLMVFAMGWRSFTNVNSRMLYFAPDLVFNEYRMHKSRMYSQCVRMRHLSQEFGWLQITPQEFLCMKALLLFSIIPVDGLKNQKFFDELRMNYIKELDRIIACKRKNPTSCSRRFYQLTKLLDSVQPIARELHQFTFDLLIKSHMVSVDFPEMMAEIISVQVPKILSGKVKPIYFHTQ


Legend:
androgen receptor = molecular target: T1, androgen receptor; experiment: Yeast two-hybrid screening of unbiased X15 peptide library, ligand-induced β-galactosidase activity (FIG. 3, Table 503); assay type: cell-based; design: expressed in transfected cells; host or cells: Saccharomyces cerevisiae PJ69-4α; details: for Yeast Specificity Graph (FIG. 3): CPA: ligand CPA; for Yeast Specificity Graph (FIG. 3): DHT: ligand DHT; for Yeast Specificity Graph (FIG. 3): RU: ligand RU; for Yeast Specificity Graph (FIG. 3): No Lig: no ligand; for Yeast Specificity Graph (FIG. 3): MPA: ligand MPA; for Yeast Specificity Graph (FIG. 3): Test: ligand Test
Description: Our library contained predominantly 15 random amino acid residues/peptide in order to identify motifs that might interact with nuclear receptor domains. If ligand is provided to the cells, one can screen for peptides that interact with the ligand-bound receptor. […] Included at the ends of the oligonucleotide were the synthetic restriction endonuclease cleavage sites, EcoRI or Mfe I (5′ end) and Sal I (3′ end). Oligonucleotides were annealed, then cleaved with excess restriction endonuclease and purified on agarose gels. The purified set of oligonucleotides was subcloned as an in-frame carboxy-terminal fusion to a Gal4 DNA binding domain (plasmid vector pMA424 derivative). […] The transformation mix was divided and grown on plates of selective media containing ligand and 25 mM 3-aminotriazole at 30° C. until colonies appeared in 3-7 days. […] Dihydrotestosterone (DHT) and medroxyprogesterone (MPA) were added to the media at 100 nM to identify peptides that interact with the receptor in the presence of ligand. After colonies appeared they were picked and dispersed into individual wells of a 96-well plate containing rich media (YPD).
To determine ligand dependence, two microliter aliquots were removed from the cell suspension, and arrayed and spotted onto each of two rectangular agar plates, one with 100 nM ligand and one without ligand. Growth was monitored daily.
A secondary test of ligand dependent activation was performed using the integrated GAL4-driven lacZ gene. Cell suspensions of the initial positive clones were diluted 20-fold into 20 microliters of rich media in a microplate and grown overnight at 30° C. in the presence and absence of ligand. Microplates were centrifuged for 5 minutes at 3000 rpm in a swinging table top centrifuge to pellet the yeast cells, and the overlying media was aspirated. […] An OD650 density determination was made to normalize the β-galactosidase activity. β-galactosidase activity was monitored following the addition of buffer containing chlorophenol red-1-galactopyranoside (CPRG) (Boehringer Mannheim) substrate at a final concentration of 0.5 mM. […] The maximum slope value of this measurement was normalized to cell density from the initial OD650 value, and the relative ligand dependence of β-galactosidase was determined by comparing the values plus and minus ligand.
In FIG. 3, all of these ligands were tested. The plasmids from true positives were extracted using standard yeast extraction protocols and re-transformed to verify the positive phenotype.

[1] = molecular target: T2, Gal4 transcriptional activation domain …; experiment: cell-based or functional assay

| Molecule | Yeast Specificity Graph (FIG. 3): CPA (androgen receptor) | Yeast Specificity Graph (FIG. 3): DHT (androgen receptor) | Yeast Specificity Graph (FIG. 3): RU (androgen receptor) | Yeast Specificity Graph (FIG. 3): No Lig (androgen receptor) | Yeast Specificity Graph (FIG. 3): MPA (androgen receptor) | Yeast Specificity Graph (FIG. 3): Test (androgen receptor) | Fold induction (androgen receptor) | β-galactosidase activity (yeast two-hybrid), MPA [1] | β-galactosidase activity (yeast two-hybrid), Test [1] |
| --- | --- | --- | --- | --- | --- | --- | --- | --- | --- |
| EFPELLAMTRWGRHAALLEPQRLPPPRTTTQPQTEFERMFFFTRPMRTTGLLDLOPS* [B2A7] | 0.2919 | 1.719 | 0.5 | 0.3711 | – | – | – | – | – |
| EFRFPFHEMVREWESMGLERVRYAEP [M4D1] | −0.03955 | 0.3948 | 0.1 | 0 | 1.698 | 0.1337 | – | – | – |
| EFVNWDAVVPWSELVALLDLOPS [B8A10] | 0.3955 | 0.6163 | 0.4 | 0.8753 | – | – | 1 | – | – |
| EFRQSFVSEILGGGWLPLDLOPS [M2H3] | 8.592 | 24.12 | 6.8 | 2.53 | 19.25 | 26.57 | 10 | – | – |
| B23H12 (peptide) MKLLSSIEQACDICRLKKLKCSKEKPKCAKCLKNNWECRYSPKTKRSPLTRAHLTEVESRLERLEQLFLLIFPREDLDMILKMDSLQDIKALLTGLFVQDNVNKDAVTDRLASVETDMPLTLRQHRISATSSSEESSNKGQRQLTVSEFPELLAMTRWGRHAALLEPQRLPPPRTTTQPQTEFERMFFFTRPMRTTGLLDLQPS | – | – | – | – | – | – | – | 1.31 | 2.44 |

Source: patent publication US20040043420A1, “Method of identifying conformation-sensitive binding peptides and uses thereof” (priority 2003, published 2004)
